Source: patent publication US6825230B2, “Spiro and dispiro 1,2,4-trixolane antimalarials” (Medicines for Malaria Venture MMV, priority 2002, dated 2004)
≈ marks a conversion by molar mass, not a printed value. Where two headings read alike, the source gives them in different places.

Legend:
[1] = tested on: chloroquine-resistant K1 strain of P. falciparum; test: In vitro antimalarial semiautomated microdilution assay ([3H]-hypoxanthine incorporation), K1 strain; type: cell-based, Plasmodium falciparum; conditions: for IC50: Plasmodium falciparum
Outline: (§1)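 IC50 values come from Logit regression of [3H]-hypoxanthine uptake data. Parasites were intraerythrocytic P. falciparum forms taken from asynchronous stock cultures and tested by semiautomated microdilution.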

[2] = tested on: chloroquine-sensitive NF54 strain of P. falciparum; test: In vitro antimalarial semiautomated microdilution assay ([3H]-hypoxanthine incorporation), NF54 strain; type: cell-based, Plasmodium falciparum; conditions: for IC50: Plasmodium falciparum
Outline: as §1

[3] = tested on: ANKA strain of P. berghei; test: Single dose STI in vivo screen in infected mice; set-up: species or system Plasmodium berghei; conditions: for Survival (days) 10 mg/kg po: single 10 mg/kg po in 3% ethanol and 7% Tween 80; for Survival (days) 10 mg/kg po / Survival (days) 10 mg/kg SSV po / Survival (days) 10 mg/kg sc: untreated 6-7 days; for Activity (%) 10 mg/kg po: single 10 mg/kg po in 3% ethanol and 7% Tween 80 on day 1 post-infection; for Activity (%) 10 mg/kg po / Activity (%) 10 mg/kg SSV po / Activity (%) 10 mg/kg sc: percent reduction in parasitemia on day 3; for Survival (days) 10 mg/kg SSV po: single 10 mg/kg po in SSV; for Activity (%) 10 mg/kg SSV po: single 10 mg/kg po in standard suspending vehicle (SSV) on day 1 post-infection; for Survival (days) 10 mg/kg sc: single 10 mg/kg sc in 3% ethanol and 7% Tween 80; for Activity (%) 10 mg/kg sc: single 10 mg/kg sc in 3% ethanol and 7% Tween 80 on day 1 post-infection
[4] = tested on: ANKA strain of Plasmodium berghei; test: Single dose ED50/ED90/ED99 determination in infected mice; type: in vivo; conditions: for ED50: Plasmodium berghei
Procedure: In the single dose ED50/ED98/ED99 determinations, Moro SPF or NMRI mice (group of three) infected with the ANKA strain of Plasmodium berghei were treated on day one post-infection. […] The SSV consists of 0.5% w/v CMC, 0.5% v/v benzyl alcohol, 0.4% v/v Tween 80, and 0.9% w/v sodium chloride in water. Antimalarial activity was measured by percent reduction in parasitemia on day three post-infection. The ED50/ED90 values were calculated by nonlinear fitting.
The ED50, ED90, and ED99 values were calculated by non-linear fitting with statistical program and were expressed in mg/kg.

[5] = tested on: Schistosoma mansoni 21-day-old schistosomules; test: Effect on 21-day-old schistosomules in infected mice; type: in vivo
Procedure: Mice were infected with 100 Schistosoma mansoni cercariae on day 21 post-treatment. Each group was treated per os with trioxolanes at a single dose of 200 mg/kg. […] All groups were killed 4 weeks after treatment and the liver and intestine were removed and separated. The liver and intestine were compressed and alive male and female worms could be seen and counted. The effect of the compounds was evaluated by mean total and female worm burden.

[6] = tested on: Schistosoma mansoni adult worms (49-day-old); test: Effect on adult schistosomes (49-day-old) in infected mice; type: in vivo; conditions: single 400 mg/kg per os
Procedure: Mice were infected with 100 Schistosoma mansoni cercariae on day 49 post-treatment. Each group was treated per os with OZ compounds at single doses of 200, 400, and 600 mg/kg. Untreated mice served as the control. All groups were killed 4 weeks after treatment and the liver and intestine were removed and separated. The liver and intestine were compressed and alive male and female worms could be seen and counted.

[7] = po, single dose po in SSV on day 1 post-infection, parasitemia day 3, nonlinear fitting
[8] = single dose po in SSV on day 1 post-infection, parasitemia day 3, nonlinear fitting
[9] = K1, 72 h, read-out: IC50 (ng/ml) K1, chloroquine-resistant K1 strain, 72 h incubation
[10] = NF54, 72 h, read-out: IC50 (ng/ml) NF54, chloroquine-sensitive NF54 strain, 72 h incubation
[11] = single dose po in SSV on day 1 post-infection, parasitemia day 3, nonlinear fitting, read-out: ED50

SMILES	ED50 [4, 7] [mg/kg]	ED90 [4, 8] [mg/kg]	ED99 [4, 8] [mg/kg]	IC50 [1, 9] [ng/mL]	IC50 [2, 10] [ng/mL]	Survival (days) 10 mg/kg po [3] [days]	Activity (%) 10 mg/kg po [3] [%]	Survival (days) 10 mg/kg SSV po [3] [days]	Activity (%) 10 mg/kg SSV po [3] [%]	Survival (days) 10 mg/kg sc [3] [days]	Activity (%) 10 mg/kg sc [3] [%]	ED50 [4, 11] [mg/kg]	other results
c1ncn(C[C@H]2CC[C@]3(CC2)OOC2(O3)C3CC4CC(C3)CC2C4)n1 (stereo partly drawn) [OZ177, cis-Adamantane-2-spiro-3′-8′-(1′H-1′,2′,4′-triazol-1′-ylmethyl)-1′,2′,4-trioxaspiro[4.5]decane]	2.1	3.7	5.8	–	–	–	–	–	–	–	–	–	IC50 (ng/ml) K1 ([1]; chloroquine-resistant K1 strain, 72 h incubation): 0.9 ng/mL (≈ 2.61 nM); IC50 (ng/ml) NF54 ([2]; chloroquine-sensitive NF54 strain, 72 h incubation): 1.7 ng/mL (≈ 4.92 nM); Survival (days) 10 mg/kg po ([3]; 10 mg/kg): 12.3 days; Activity (%) 10 mg/kg po ([3]; 10 mg/kg): 99.91%; Survival (days) 10 mg/kg SSV po ([3]; 10 mg/kg): 12.7 days; Activity (%) 10 mg/kg SSV po ([3]; 10 mg/kg): 99.88%; Survival (days) 10 mg/kg sc ([3]; 10 mg/kg): 17.7 days; Activity (%) 10 mg/kg sc ([3]; 10 mg/kg): 99.91%
COCC(=O)N1CCC2(CC1)OOC1(O2)C2CC3CC(C2)CC1C3 (stereo not drawn) [OZ113, Adamantane-2-spiro-3′-8′-methoxyacetyl-1′,2′,4′-trioxa-8′-azaspiro[4.5]decane]	3.6	9.0	19	0.95 (≈ 2.82 nM)	0.2 (≈ 0.593 nM)	7.3	92	8.0	96	7.3	89	–	–
c1cn(CC[C@H]2CC[C@]3(CC2)OOC2(O3)C3CC4CC(C3)CC2C4)cn1 (stereo partly drawn) [OZ219]	–	–	5.2	–	–	8.7	99.89	8.0	99.82	9.3	99.91	1.6	IC50 ([1]; chloroquine-resistant K1 strain, 72 h incubation, read-out: IC50 (ng/ml) K1): 0.85 ng/mL (≈ 2.37 nM); IC50 ([2]; chloroquine-sensitive NF54 strain, 72 h incubation, read-out: IC50 (ng/ml) NF54): 1.6 ng/mL (≈ 4.46 nM); ED90 ([4]; po): 3.0 mg/kg
O=C(NO)[C@H]1CC[C@@]2(CC1)OOC1(O2)C2CC3CC(C2)CC1C3 (stereo partly drawn) [OZ127]	2.5	7.6	19	0.61 (≈ 1.89 nM)	1.3 (≈ 4.02 nM)	7.0	95	7.7	98	7.7	97	–	–
c1ccc(C2CCC3(CC2)OOC2(O3)C3CC4CC(C3)CC2C4)cc1 (stereo not drawn) [OZ27]	–	5.7	9.9	–	–	–	–	–	–	–	–	2.9	% reduction of schistosomule growth at day 21 after per os application of 200 mg/kg, TWR (%) ([5]; po, 200 mg/kg, 504 h): 63%; % reduction of schistosomule growth at day 21 after per os application of 200 mg/kg, FWR (%) ([5]; single 200 mg/kg per os, 21-day-old schistosomules, female worm reduction rate): 58%; % reduction of adult worms growth at day 49 after per os application of 400 mg/kg, TWR (%) ([6]; 49-day-old adults, total worm reduction rate): 20%; Adult worms day 49, per os 400 mg/kg, DEAD WORM (%) ([6]; percentage of dead worm in the liver): 10%
